Target: T1, human GPR84 receptor (Homo sapiens, UniProt Q9NQS5)
T1 construct: host or cells: HEK293, transient transfection
Assay: Gαi biosensor BRET assay in HEK293 cells (antagonism of ZQ-16)
Format: cell-based
Details: for inhibition at 10 µM: HEK293, single concentration 10 μM (designated F); for IC50: HEK293 cells, antagonism of 200 nmol/L ZQ-16; for inhibition at 25 µM: HEK293, single concentration 25 μM (designated I)
Excerpt: Background—The following assays can be used for determination of GPR84 activation in living HEK293 cells. The Gai BRET biosensor (Gagnon et al., 2018; Gales et al., 2006. Nat StructMol Biol. 13, 778-86; Saulieres et al., 2012. Nat Chem Biol. 8, 622-30) allows to directly monitor GPR84-mediated activation of Gai. The Gai biosensor consists of a Rluc8-tagged Gαi2 subunit, a GFP10-tagged Gγ2 subunit, and an untagged Gβ1. Agonist stimulation and GPR84 activation triggers a physical separation between the RLuc8-Gαi donor and the GFP10-Gγ2 acceptor, resulting in a decrease in BRET signal whose amplitude is correlated to ligand efficacy (Gales et al., 2006). Moreover, signaling functions of GPCRs are tightly regulated by endocytosis, the targeting of receptors to endosomes and their sorting to lysosomes or recycling to the plasma membrane. The early endosomes (EEs) trafficking assay (Namkung et al., 2016. Nat Commun. 7, 12178) uses Rluc8-tagged GPR84 and Renilla GFP (rGFP) attached to the FYVE domain from human endofin/zinc finger FYVE domain-containing protein 16, which binds phosphatidylinositol 3-phosphate in EEs. Agonist stimulation of GPR84-Rluc8 leads to trafficking of the receptor to EEs, and ensuing increase of the donor concentration relative to the rGFP-FYVE acceptor anchored in the same cellular compartment, and thus results in an increase in BRET signal.
Plasmids—The cDNA clones for human GPR84 receptor, human Gai2, Gp1, and Gy2 were obtained from the cDNA Resource Center (www.cdna.org). GFP10 (F64L, S147P, S202F and H231L variant of Aequorea victoria Green Fluorescent Protein) gBlocks gene fragments (Integrated DNA Technologies, IA) and linker were inserted in frame at the N-terminus of human Gγ2. Rluc8 (A55T, C124A, S130A, K136R, A143M, M185V, M253L, and S287L variant of the Renilla renformis luciferase) gBlocks gene fragment was inserted with linkers in frame in between residues 91 and 92 of Gai2 or at the C-terminus of GPR84. The FYVE domain from human endofin (residues Q739 to K806) attached in frame at the C terminus of a humanized Renilla GFP (rGFP), were synthesized as gBlocks gene fragments.
Bioluminescence Resonance Energy Transfer (BRET) Measurement—HEK293 cells were transfected with GPR84-Rluc8 and rGFP-FYVE for the EEs trafficking biosensor or with GPR84, Gαi2-Rluc8, GFP10-Gγ2, and Gβ1 for the Gαi biosensor. The following day, transiently transfected cells were seeded in 96-well white clear bottom microplates coated with poly-D-lysine and left in culture for 24 hours. Cells were washed once with Tyrode's buffer (140 mmol/L NaCl, 1 mmol/L CaCl2, 2.7 mmol/L KCl, 0.49 mmol/L MgCl2, 0.37 mmol/L NaH2PO4, 5.6 mmol/L glucose, 12 mmol/L NaHCO3, and 25 mmol/L HEPES, pH 7.5) before performing assays in Tyrode's buffer. Test compounds were incubated with cells for 5 (Gαi) or 15 (EEs) minutes at 37° C. before addition of 200 nmol/L of the GPR84 agonist ZQ-16 (2-(Hexylthio)-6-hydroxy-4(3H)-pyrimidinone) for 5 minutes at room temperature (Gαi) or 30 minutes at 37° C. (EEs). The Rluc8 substrate coelenterazine 400A (Prolume, Lakeside, AZ) was added at a final concentration of 5 μmol/L and BRET readings were collected using an Infinite M1000 microplate reader (Tecan, Morrisville, NC). BRET^2 readings between Rluc8 and GFP10 or rGFP were collected by sequential integration of the signals detected in the 370 to 450 nm (Rluc8) and 510 to 540 nm (GFP10, rGFP) windows. The BRET signal was calculated as the ratio of light emitted by acceptor (GFP10, rGFP) over the light emitted by donor (Rluc8). The values were corrected to net BRET by subtracting the background BRET signal obtained in cells transfected with Rluc8 constructs alone. Ligand-promoted net BRET values were calculated by subtracting vehicle-induced net BRET from ligand-induced net BRET.

T1 sequence (Q9NQS5 whole entry): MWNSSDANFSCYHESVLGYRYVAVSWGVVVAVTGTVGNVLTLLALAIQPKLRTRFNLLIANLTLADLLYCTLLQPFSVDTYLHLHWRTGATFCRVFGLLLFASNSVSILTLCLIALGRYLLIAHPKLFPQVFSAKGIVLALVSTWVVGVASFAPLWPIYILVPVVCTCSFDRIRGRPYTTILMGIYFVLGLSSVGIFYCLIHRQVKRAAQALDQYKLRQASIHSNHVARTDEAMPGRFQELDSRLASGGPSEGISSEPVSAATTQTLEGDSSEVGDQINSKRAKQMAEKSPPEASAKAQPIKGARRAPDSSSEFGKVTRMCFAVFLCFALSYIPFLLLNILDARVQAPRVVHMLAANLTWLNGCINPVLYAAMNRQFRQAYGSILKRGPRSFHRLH

inhibition at 10 µM	SMILES	other results
> 75%	Cc1cc(C#CCNc2ccccc2)ccc1-c1cn(CC2CCCO2)nn1 (centres unmarked) [Compound I-62]	IC50: > 3 µM
	Cc1cc(C#CC2CC2)ccc1-c1cn(CC(C)Oc2ccccc2)nn1 (centres unmarked) [Compound I-72]	inhibition at 25 µM: ≤ 25%
	COC(Cn1cc(-c2ccc(C#CC3CC3)cc2C)nn1)c1ccccc1 (centres unmarked) [Compound I-73]	inhibition at 25 µM: ≤ 25%
	Cc1cc(CN2CCOCC2)ccc1-c1cn(CC2CCCCO2)nn1 (centres unmarked) [Compound I-74]	inhibition at 25 µM: 25 to 50%
	Cc1cc(C#CC(C)O)ccc1-c1cn(CC2CCCCO2)nn1 (centres unmarked) [Compound I-78]	IC50: 1 to 3 µM
	Cc1c(C#CC2CC2)cccc1-c1cn(CC2CCCCO2)nn1 (centres unmarked) [Compound I-80]	inhibition at 25 µM: ≤ 25%
25 to 50%	COc1cc(C#CC2CC2)ccc1-c1cn(CC2CCCCO2)nn1 (centres unmarked) [Compound I-82]	IC50: > 3 µM
	C(#CC1CC1)c1ccc(-c2cn(CCOCC3CCCCO3)nn2)cc1 (centres unmarked) [Compound I-83]	inhibition at 25 µM: 25 to 50%
	Cc1cc(C#CC2CC2)ccc1-c1cn(CCOCC2CCCCO2)nn1 (centres unmarked) [Compound I-85]	inhibition at 25 µM: 25 to 50%
	Cc1cc(C#CC2CC2)ccc1-c1cn(CC2OCCCO2)nn1 [Compound I-91]	IC50: 1 to 3 µM
	Cc1cc(C#CC2CC2)ccc1-c1cn(CCOCC2COCCO2)nn1 (centres unmarked) [Compound I-92]	inhibition at 25 µM: 25 to 50%
≤ 25%	C(#CC1CC1)c1ccc(-c2cn(CCOCC3COCCO3)nn2)cc1 (centres unmarked) [Compound I-93]	
≤ 25%	Cc1ccc(-c2cccc(-c3nnn(CC4CCCCO4)c3C)c2)cn1 (centres unmarked) [Compound I-95]	
≤ 25%	CC(=O)N1CCOC(Cn2cc(-c3ccc(C#CC4CC4)cc3C)nn2)C1 (centres unmarked) [Compound I-96]	
≤ 25%	CC(C)(C)OCCn1cc(-c2ccc(C#CC3CC3)cc2)nn1 [Compound I-97]	
≤ 25%	Cc1cc(C#CC2CC2)ccc1-c1cn(CCOC(C)(C)C)nn1 [Compound I-98]	
≤ 25%	CC(=O)N1CCOCC1Cn1cc(-c2ccc(C#CC3CC3)cc2C)nn1 (centres unmarked) [Compound I-99]	
≤ 25%	Cc1cc(C#CC2CC2)ccc1-c1cn(CC2OCc3ccccc32)nn1 (centres unmarked) [Compound I-100]	
25 to 50%	Cc1cc(C#CC2CC2)ccc1-c1cn(CC2COc3ccccc3O2)nn1 (centres unmarked) [Compound I-101]	
25 to 50%	C(#CC1CC1)c1ccc(-c2cn(CC3OCCCO3)nn2)cc1 [Compound I-102]	

inhibition at 10 µM	SMILES	other results
≤ 25%	COCCn1cc(-c2ccc(C#CC3CC3)cc2)nn1 [Compound I-103]	
≤ 25%	COCCn1cc(-c2ccc(C#CC3CC3)cc2C)nn1 [Compound I-104]	
≤ 25%	COC(=O)N1CCOC(Cn2cc(-c3ccc(C#CC4CC4)cc3C)nn2)C1 (centres unmarked) [Compound I-105]	
≤ 25%	COC(=O)N1CCOCC1Cn1cc(-c2ccc(C#CC3CC3)cc2C)nn1 (centres unmarked) [Compound I-106]	
25 to 50%	Cc1cc(NC(=O)C2CC2)ccc1-c1cn(CC2CCCCO2)nn1 (centres unmarked) [Compound I-109]	
≤ 25%	Cc1cc(NC(=O)N2CCCC2)ccc1-c1cn(CC2CCCCO2)nn1 (centres unmarked) [Compound I-110]	
≤ 25%	Cc1cc(N2CCN(C)CC2)ccc1-c1cn(C[C@H]2CCCCO2)nn1 [Compound I-111]	
≤ 25%	CC(=O)N1CCN(c2ccc(-c3cn(CC4CCCCO4)nn3)c(C)c2)CC1 (centres unmarked) [Compound I-112]	
25 to 50%	Cc1cc(N2CC3(COC3)C2)ccc1-c1cn(CC2CCCCO2)nn1 (centres unmarked) [Compound I-113]	
≤ 25%	Cc1cc(N2CC(N(C)C)C2)ccc1-c1cn(CC2CCCCO2)nn1 (centres unmarked) [Compound I-114]	
≤ 25%	Cc1c(-c2ccc(C#CC3CC3)cc2)nnn1CC1CCCO1 (centres unmarked) [Compound I-115]	
25 to 50%	Cc1cc(C#CC2CC2)sc1-c1cn(CC2CCCCO2)nn1 (centres unmarked) [Compound I-116]	
25 to 50%	Cc1cc(C#CCNc2ccncc2)ccc1-c1cn(CC2CCCCO2)nn1 (centres unmarked) [Compound I-122]	
25 to 50%	CC(=O)c1cc(C#CC2CC2)ccc1-c1cn(CC2CCCCO2)nn1 (centres unmarked) [Compound I-124]	
≤ 25%	COc1ccc(C#CC2CC2)cc1-c1cn(CC2CCCCO2)nn1 (centres unmarked) [Compound I-125]	
≤ 25%	Cc1cc(C#CC2CC2)ccc1-c1cn(CC2CCCCN2)nn1 (centres unmarked) [Compound I-126]	
≤ 25%	CNC1CCN(c2ccc(-c3cn(CC4CCCCO4)nn3)c(C)c2)CC1 (centres unmarked) [Compound I-128]	
≤ 25%	Cc1cc(N2CCC(N(C)C)CC2)ccc1-c1cn(CC2CCCCO2)nn1 (centres unmarked) [Compound I-129]	
≤ 25%	Cc1cc(NS(C)(=O)=O)ccc1-c1cn(CC2CCCCO2)nn1 (centres unmarked) [Compound I-130]	
≤ 25%	Cc1cc(C#CCNC(C)C)ccc1-c1cn(CC2CCCCO2)nn1 (centres unmarked) [Compound I-131]	

inhibition at 10 µM	SMILES	other results
25 to 50%	COC(C)Cn1cc(-c2ccc(C#CC3CC3)cc2C)nn1 (centres unmarked) [Compound I-132]	
50 to 75%	N#Cc1cc(C#CC2CC2)ccc1-c1cn(CC2CCCCO2)nn1 (centres unmarked) [Compound I-133]	
≤ 25%	Clc1ccc(C#CC2CC2)cc1-c1cn(CC2CCCCO2)nn1 (centres unmarked) [Compound I-134]	
≤ 25%	Cc1cc(C#CCNc2ccccc2)ccc1-c1cn(CCOc2ccccn2)nn1 [Compound I-135]	
≤ 25%	Cc1cc(C#CCNc2ccccc2)ccc1-c1cn(CCOc2cccnc2)nn1 [Compound I-136]	
≤ 25%	Cc1cc(C#CCNc2ccccc2)ccc1-c1cn(Cc2ccccn2)nn1 [Compound I-137]	
≤ 25%	CC(=O)N1CCCCC1Cn1cc(-c2ccc(C#CC3CC3)cc2C)nn1 (centres unmarked) [Compound I-139]	
25 to 50%	Cc1cc(N2CCN(Cc3ccccc3)CC2)ccc1-c1cn(CC2CCCCO2)nn1 (centres unmarked) [Compound I-140]	
≤ 25%	Cc1cc(N2CCC(N(C)Cc3ccccc3)CC2)ccc1-c1cn(CC2CCCCO2)nn1 (centres unmarked) [Compound I-141]	
≤ 25%	Cc1cc(C#CC2CC2)ccc1-c1cn(Cc2ncco2)nn1 [Compound I-143]	
≤ 25%	Cc1cc(N2CC3(CN(C)C3)C2)ccc1-c1cn(CC2CCCCO2)nn1 (centres unmarked) [Compound I-145]	
25 to 50%	Cc1cc(N2CC3(CN(Cc4ccccc4)C3)C2)ccc1-c1cn(CC2CCCCO2)nn1 (centres unmarked) [Compound I-146]	
≤ 25%	Cc1cc(N2CC3(CCCN3)C2)ccc1-c1cn(CC2CCCCO2)nn1 (centres unmarked) [Compound I-147]	
50 to 75%	Cc1cc(N2CC3(CCCN3C)C2)ccc1-c1cn(CC2CCCCO2)nn1 (centres unmarked) [Compound I-148]	
≤ 25%	Cc1cc(N2CCCC23CNC3)ccc1-c1cn(CC2CCCCO2)nn1 (centres unmarked) [Compound I-150]	
≤ 25%	Cc1cc(N2CCCC23CN(C)C3)ccc1-c1cn(CC2CCCCO2)nn1 (centres unmarked) [Compound I-151]	
≤ 25%	Cc1cc(N2CCCC(N(C)C)C2)ccc1-c1cn(CC2CCCCO2)nn1 (centres unmarked) [Compound I-153]	
25 to 50%	Cc1cc(N2CC3(CCNCC3)C2)ccc1-c1cn(CC2CCCCO2)nn1 (centres unmarked) [Compound I-154]	
≤ 25%	Cc1cc(N2CC3(CCN(C)CC3)C2)ccc1-c1cn(CC2CCCCO2)nn1 (centres unmarked) [Compound I-155]	
50 to 75%	Cc1cc(N2CC3(CCN(Cc4ccccc4)CC3)C2)ccc1-c1cn(CC2CCCCO2)nn1 (centres unmarked) [Compound I-156]	

Reference: patent US12617777B2, “GPR84 antagonists and uses thereof” (Liminal BioSciences Limited, priority 2021, dated 2026)
